Molecular target: Sonic hedgehog protein (Mus musculus, UniProt Q62226)
Experiment: Activation of Shh in mouse Shh Light2 cells after 30 hrs by luciferase reporter gene assay

Sequence of Sonic hedgehog protein (Q62226 25-198 limits assumed): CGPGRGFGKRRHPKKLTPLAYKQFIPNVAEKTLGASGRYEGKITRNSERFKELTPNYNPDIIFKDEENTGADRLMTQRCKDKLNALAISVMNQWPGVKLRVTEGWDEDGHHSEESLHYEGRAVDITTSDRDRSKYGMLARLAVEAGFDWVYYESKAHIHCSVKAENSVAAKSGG

- EC50: 1 µM
Structure (SMILES): c1ccc2c(Oc3nc(Nc4ccc(N5CCOCC5)cc4)c4ncn(C5CCCCC5)c4n3)cccc2c1 [Purmorphamine]

— BindingDB's records for doi:10.1038/nchembio753 (Stanford University School of Medicine, 2006)
